{
  "source": "patent US10928382B2",
  "about": "“Microfluidic device and method for analysis of tumor cell microenvironments” (Northeastern University, priority 2014, dated 2021)",
  "key": {"[1]": {"tested_on": "adriamycin resistant MCF7 cells", "assay": "LIVE/DEAD viability/cytotoxicity assay, adriamycin resistant MCF7 cell spheroids in microfluidic device (compared with 2D monolayers)"}, "[2]": {"tested_on": "adriamycin sensitive MCF7 cells", "assay": "LIVE/DEAD viability/cytotoxicity assay, adriamycin sensitive MCF7 cell spheroids in microfluidic device (compared with 2D monolayers)", "format": "cell-based", "experimental": "FIGS. 6A and 6B show adriamycin resistant MCF7 cell spheroids at 96 hr incubation without doxorubicin (FIG. 6A) and at 48 hr incubation with 12.8 μM doxorubicin (FIG. 6B). […] FIGS. 6C and 6D show adriamycin sensitive MCF7 cell spheroids at 96 hr incubation without doxorubicin (FIG. 6C) and at 48 hr incubation with 12.8 μM doxorubicin (FIG. 6D)."}, "[3]": {"tested_on": "co-cultured MCF7 and HS5 cells", "assay": "LIVE/DEAD viability assay, co-cultured MCF7 and HS5 fibroblast cell spheroids in microfluidic device", "format": "cell-based", "conditions": "3D spheroids, doxorubicin 3200 nM and 12800 nM, FIG. 7D"}, "[4]": {"conditions": "3D spheroids, doxorubicin 800 nM to 12800 nM, FIG. 7C"}},
  "data": [
    {"smiles": "COc1cccc2c1C(=O)c1c(O)c3c(c(O)c1C2=O)C[C@@](O)(C(=O)CO)C[C@@H]3O[C@H]1C[C@H](N)[C@H](O)[C@H](C)O1", "note": "[doxorubicin]", "values": [
      {"measurement": "cell viability, 2D monolayers versus 3D spheroids", "setting": "[1]; 12.8 μM doxorubicin, p<0.05, cells more susceptible in 2D than 3D, FIG. 7A", "value": "statistically significant difference in cell viability"},
      {"measurement": "cell toxicity (red fluorescence, LIVE/DEAD assay)", "setting": "[1]; 3D spheroids, 12.8 μM doxorubicin, 48 hr incubation, FIG. 6B", "value": "cell toxicity"},
      {"measurement": "survival rate in spheroids", "setting": "[1]; [4]", "value": "high and comparable survival rates"},
      {"measurement": "susceptibility to doxorubicin (red fluorescent nuclei staining) versus adriamycin resistant cells", "setting": "[2]; 3D spheroids, 12.8 μM doxorubicin, 48 hr incubation, FIG. 6D vs 6B", "value": "more susceptible to doxorubicin than the adriamycin resistant cells"},
      {"measurement": "survival rate in spheroids", "setting": "[2]; [4]", "value": "high and comparable survival rates"},
      {"measurement": "cell viability, 2D monolayers versus 3D spheroids", "setting": "[2]; doxorubicin 1600 nM to 12800 nM, p<0.05, FIG. 7B", "value": "statistically significant difference in cell viability"},
      {"measurement": "overall cell survival rate in response to doxorubicin, with fibroblasts versus MCF7 adriamycin sensitive spheroids alone", "setting": "[3]", "value": "significant increase in the overall cell survival rate"}
    ]}
  ]
}
